Tests used:
hNav1.7 = target: T1, hNav1.7 (Homo sapiens, UniProt Q15858); assay: Fluorescent (FRET) based sodium channel assay, hNav1.7; type: cell-based; settings: HEK293 stably transfected with hNav1.7, 20 μM veratridine, read-out: hNav 1.7 IC50
T1 construct: expressed in transfected cells; host or cells: HEK293
Method: Two isoforms of the channel were examined: hNav1.5, a cardiac sodium channel associated with arrhythmias, and hNav1.7, an isoform found in the peripheral nervous system.
HEK293 cells stably transfected with either hNav1.5 or hNav1.7 were plated at approximately 11,000-20,000 cells/well in flat bottom, poly-D-lysine coated black-wall, clear-bottom, 384-well plates (Becton Dickinson, Bedford, Mass.), and incubated overnight at 37° C. in a 10% CO2 atmosphere in growth medium. Cells were washed with 0.03 mL of Dulbecco's phosphate buffered saline (D-PBS) containing calcium and magnesium. Cells were then incubated with 0.025 mL of a solution containing 10 μM CC2-DMPE and 0.02% pluronic acid in D-PBS with calcium and magnesium; supplemented with 10 mM glucose, and 10 mM Hepes-NaOH, pH 7.4. […] Afterwards, cells were incubated in the dark at 25° C. for 45 min with 0.025 mL of a solution containing 5 μM DiSBAC2(3) in VIPR-S, in the absence or presence of test compound. At the end of the incubation period, the plate was placed in a FLIPR TETRA instrument (MDS Analytical Technologies, Sunnyvale Calif.), illuminated at 390-420 nm, and fluorescence emissions were recorded at approximately 1 Hz at 460 and 580 nm. Following a 7 second baseline reading, 0.025 mL of VIPR-S containing 10 μM veratridine for Nav1.5 or 20 μM veratridine for Nav1.7 was added to each well, and the emissions of both dyes were recorded for an additional 33 seconds. The change in fluorescence resonance energy transfer (FRET) ratio (F/F0) was calculated as: F/F0=((A460/A580/(I460/I580) where A and I represent the readings after or before addition of veratridine, respectively, at the indicated wavelengths. For I, the readings from 2-5 seconds were averaged, and for A, readings from 3 seconds after the signal had reached a plateau level (usually within 30-40 s) were also averaged. Triplicate measurements were performed for each experimental condition and the data were averaged.

hERG potassium channels = target: T2, hERG potassium channels (Homo sapiens, UniProt Q12809); assay: hERG binding assay ([35S]MK-499 displacement); settings: [35S]MK-499, HEK-293 hERG membranes
T2 construct: expressed in transfected cells; host or cells: HEK-293 (membranes)
Description: All four compounds were also counter-screened for human ether-a-go-go-related gene (hERG) activity against the radio-ligand MK-0499. Blockade of hERG K^+ channels is widely regarded as the predominant cause of drug-induced QT prolongation. (Aronov, A J Med Chem. 2006 Nov. 16; 49(23):6917-21).
MK-499, a potent hERG blocker, was used in a ligand binding assay to evaluate the binding of test compounds to hERG potassium channels as previously described (Wang, J et al. Am J Physiol Heart Circ Physiol, 2003, 284: H256-H267).^2 Test compounds were incubated with 0.05 nM of radiolabeled MK-499 ([35S]MK-499; specific Activity=1,279,010 μCi/μmol) in an assay buffer solution (70 mM NaCl, 60 mM KCl, 10 mM HEPES/NaOH (pH 7.4), 2 mM MgCl2, 1 mM CaCl2) also containing membranes isolated from HEK-293 cells stably expressing hERG channels in 96 well polypropylene deep-well assay plates at room temperature (25° C.) for >90 min. Assay plates were rinsed three time with buffer (130 mM NaCl, 10 mM HEPES/NaOH (pH 7.4), 2 mM MgCl2, 1 mM CaCl2) and the solution transferred to a Packard FilterMate Universal Harvester apparatus and filtered using PerkinElmer UniFilter-96 GF/C 96-well white microplates pre-soaked with 0.3% BSA (10 mL/L of 30% BSA). Plates were dried overnight at 37° C., or for 2 hrs at 56° C. The bottom of the plates were sealed and 0.025 mL of Microscint 0 was added to each well. The plates were top sealed and counted for 2 min/well in a Packard TopCount Scintillation counter. Test compounds were evaluated in a five point titration format using half-log steps from 0.3 μM to 30 μM. […] Less than 5% of the added radioactivity was retained on the filters. Assays were performed in triplicate.

CWR22rv-1 cells = assay: CWR22rv-1 prostate cancer cell death (propidium iodide, FACS); type: cell-based, human
Method: CWR22Rv1 cells (ATCC, Manassas, Va.) were seeded in 6 well tissue culture plate at density of 300,000 cells/well and maintained in RPMI 1640 (Mediatech, Herndon, Va.) containing 10% fetal bovine serum, 2.5 mM L-glutamine, and penicillin-streptomycin (100 IU/ml and 100 μg/ml, respectively) at 37° C. with 5% CO2. Cells were then switched to serum free RPMI media overnight prior to drug treatment. Compounds were dissolved in 100% dimethylsulfoxide (DMSO) and diluted to the desired concentrations in serum free RPMI. Cells were treated with indicated drug concentrations (in triplicate per treatment point) for 24, 48, 72 hour. After treatment, cells were harvested by trypsinization and fixed in 70% ethanol. The fixed cells were then stained with propidium iodide (50 μg/ml) after treatment with RNase (5 μg/ml). The stained cells were analyzed for DNA content using FACSsort (Becton Dickinson). Cell cycle fractions were quantified with Cell Quest (Becton Dickinson) or ModFit LT (Verity Software House).

[1] = test system: human prostate xenograft PC3; assay: PC3 xenograft study; type: in vivo; settings: mice bearing PC3 xenografts; 10 mg/kg ip every other day
Method: Intraperitoneally (ip) 10 mg/kg of racemic (±)-1 and each enantiomer was administered in mice bearing PC3 xenografts (FIG. 16). This dose was administered qd every other day for 24 days and effects on reducing the tumor volume were measured.
PC-3 cell line (ATCC, Manassas, Va.) was cultured in RPMI-1640 with L-glutamine (Mediatech Inc., Herdon, Va.) containing 5% fetal bovine serum (FBS), 2.5 mM L-glutamine at 37° C. with 5% CO2.
Male athymic balbc/nude mice (18-22 g) were injected with 3×106 (0.3 mL) of the human prostate cancer cells (PC3). The human prostate cancer cells were injected in the subcutaneous tissue of the right axillary region of the mice. One week after the injection, the mice were randomly sorted into four groups with 6 mice per group. […] The stock of each compound was added to polyethylene glycol 400 (PEG) (Hampton) and PBS in a 1:1 ratio. The test concentrations were obtained by diluting with PEG/PBS. The tumor-bearing mice received an intraperitoneal injection (IP) with either 10 mg/kg of (±)-1, R-(−)-1 or S-(+)-1 or vehicle control respectively once every other day for 4 weeks. At the same time, the tumor size of each mouse was measured by caliper and calculated by the formula: Length×width×height/2.

[2] = mouse, in vivo, ip

T2 sequence (Q12809 whole entry): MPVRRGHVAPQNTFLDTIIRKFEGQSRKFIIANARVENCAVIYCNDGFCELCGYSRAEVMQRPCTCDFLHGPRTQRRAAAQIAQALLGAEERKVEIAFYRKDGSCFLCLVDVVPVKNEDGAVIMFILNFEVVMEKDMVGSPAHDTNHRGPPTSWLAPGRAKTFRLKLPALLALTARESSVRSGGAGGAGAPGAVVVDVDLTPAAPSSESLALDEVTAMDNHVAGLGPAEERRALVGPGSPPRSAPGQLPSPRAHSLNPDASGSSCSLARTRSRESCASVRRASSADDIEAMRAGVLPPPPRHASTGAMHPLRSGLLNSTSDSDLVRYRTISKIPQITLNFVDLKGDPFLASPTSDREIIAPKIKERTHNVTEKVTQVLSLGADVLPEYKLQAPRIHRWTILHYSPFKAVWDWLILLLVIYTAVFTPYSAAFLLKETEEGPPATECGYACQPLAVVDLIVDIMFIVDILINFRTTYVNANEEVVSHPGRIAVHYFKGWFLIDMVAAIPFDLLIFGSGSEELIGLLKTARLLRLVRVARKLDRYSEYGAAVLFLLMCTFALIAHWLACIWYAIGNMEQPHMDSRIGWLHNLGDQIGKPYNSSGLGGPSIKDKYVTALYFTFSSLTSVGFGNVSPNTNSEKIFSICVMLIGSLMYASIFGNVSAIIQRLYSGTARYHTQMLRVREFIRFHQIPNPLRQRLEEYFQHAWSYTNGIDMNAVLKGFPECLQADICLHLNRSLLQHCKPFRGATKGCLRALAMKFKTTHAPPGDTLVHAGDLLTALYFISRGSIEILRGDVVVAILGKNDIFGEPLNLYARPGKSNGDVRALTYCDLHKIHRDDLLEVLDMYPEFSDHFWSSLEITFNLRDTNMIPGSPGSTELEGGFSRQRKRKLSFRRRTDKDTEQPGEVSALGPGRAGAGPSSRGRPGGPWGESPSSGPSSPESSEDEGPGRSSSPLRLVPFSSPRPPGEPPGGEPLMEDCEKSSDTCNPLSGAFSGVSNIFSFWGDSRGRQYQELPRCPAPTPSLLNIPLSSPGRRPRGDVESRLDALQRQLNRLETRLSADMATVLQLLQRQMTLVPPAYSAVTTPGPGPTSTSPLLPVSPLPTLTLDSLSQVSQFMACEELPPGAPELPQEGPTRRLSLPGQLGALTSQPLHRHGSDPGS
T1 sequence (Q15858 whole entry): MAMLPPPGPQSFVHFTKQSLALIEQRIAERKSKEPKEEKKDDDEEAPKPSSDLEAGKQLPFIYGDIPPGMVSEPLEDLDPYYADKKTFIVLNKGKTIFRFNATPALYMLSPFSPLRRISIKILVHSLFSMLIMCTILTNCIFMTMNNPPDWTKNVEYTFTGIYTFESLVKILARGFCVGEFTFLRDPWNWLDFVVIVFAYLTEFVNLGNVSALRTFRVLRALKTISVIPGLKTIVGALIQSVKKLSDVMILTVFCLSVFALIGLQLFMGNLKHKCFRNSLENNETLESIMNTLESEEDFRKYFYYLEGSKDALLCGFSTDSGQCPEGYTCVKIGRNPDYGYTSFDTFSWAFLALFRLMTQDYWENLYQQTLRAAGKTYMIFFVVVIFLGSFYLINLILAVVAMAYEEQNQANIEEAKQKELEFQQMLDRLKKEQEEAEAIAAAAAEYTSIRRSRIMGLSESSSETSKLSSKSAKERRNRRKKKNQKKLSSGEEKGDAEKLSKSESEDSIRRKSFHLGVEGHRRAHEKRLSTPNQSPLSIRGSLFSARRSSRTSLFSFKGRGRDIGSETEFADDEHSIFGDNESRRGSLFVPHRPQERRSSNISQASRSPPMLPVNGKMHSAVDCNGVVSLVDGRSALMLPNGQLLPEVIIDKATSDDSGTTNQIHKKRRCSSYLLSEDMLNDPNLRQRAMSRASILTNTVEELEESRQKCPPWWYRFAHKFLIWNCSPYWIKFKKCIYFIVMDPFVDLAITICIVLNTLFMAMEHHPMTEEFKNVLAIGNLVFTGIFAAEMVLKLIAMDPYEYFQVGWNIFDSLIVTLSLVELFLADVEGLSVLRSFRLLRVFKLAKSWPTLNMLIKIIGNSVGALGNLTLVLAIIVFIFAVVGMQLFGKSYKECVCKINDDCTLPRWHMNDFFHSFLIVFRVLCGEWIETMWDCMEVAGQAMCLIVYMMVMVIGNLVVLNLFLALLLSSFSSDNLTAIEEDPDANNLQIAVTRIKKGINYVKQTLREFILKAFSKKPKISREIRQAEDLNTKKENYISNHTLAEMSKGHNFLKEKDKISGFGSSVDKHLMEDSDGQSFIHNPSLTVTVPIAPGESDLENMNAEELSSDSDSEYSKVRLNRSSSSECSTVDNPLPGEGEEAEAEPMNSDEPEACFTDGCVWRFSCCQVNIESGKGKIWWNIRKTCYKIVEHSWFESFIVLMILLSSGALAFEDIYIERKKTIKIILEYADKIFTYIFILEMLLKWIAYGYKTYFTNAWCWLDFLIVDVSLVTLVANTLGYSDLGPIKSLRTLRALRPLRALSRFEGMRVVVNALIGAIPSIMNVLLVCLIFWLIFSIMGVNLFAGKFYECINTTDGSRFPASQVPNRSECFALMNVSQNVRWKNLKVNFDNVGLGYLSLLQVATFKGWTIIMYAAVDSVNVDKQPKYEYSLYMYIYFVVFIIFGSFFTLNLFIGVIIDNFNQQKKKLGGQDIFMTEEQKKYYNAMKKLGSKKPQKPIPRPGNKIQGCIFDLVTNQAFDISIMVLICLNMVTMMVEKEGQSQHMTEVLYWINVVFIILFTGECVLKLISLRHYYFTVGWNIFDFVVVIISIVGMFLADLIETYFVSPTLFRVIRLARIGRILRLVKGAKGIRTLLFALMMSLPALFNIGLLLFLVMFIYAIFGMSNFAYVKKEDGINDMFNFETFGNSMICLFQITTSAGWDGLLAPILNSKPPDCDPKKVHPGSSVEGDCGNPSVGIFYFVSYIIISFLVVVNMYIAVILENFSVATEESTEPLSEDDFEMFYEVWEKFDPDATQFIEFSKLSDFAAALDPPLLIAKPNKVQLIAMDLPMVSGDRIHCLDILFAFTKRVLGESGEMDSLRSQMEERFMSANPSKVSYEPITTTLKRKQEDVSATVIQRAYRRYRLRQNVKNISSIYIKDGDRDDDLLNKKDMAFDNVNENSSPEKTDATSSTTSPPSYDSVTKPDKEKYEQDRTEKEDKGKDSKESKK

CCCCCCCC(O)(C(N)=O)c1cccc(Cl)c1 (racemic) [(±)-1, 2-(3-chloro-phenyl)-2-hydroxy-nonanoic acid amide]
IC50 (hNav1.7): 1810 nM
% inhibition for hERG assay, 0.3 μM (hERG potassium channels; 0.3 μM): 15%
% inhibition for hERG assay, 1 μM (hERG potassium channels; 1 μM): 17%
% inhibition for hERG assay, 3 μM (hERG potassium channels; 3 μM): 15%
% inhibition for hERG assay, 10 μM (hERG potassium channels; 10 μM): 51%
% inhibition for hERG assay, 30 μM (hERG potassium channels; 30 μM): 78%
cell death of CWR22rv-1 cells (CWR22rv-1 cells; 25 μM, after 24 h): marginal effects
cell death of CWR22rv-1 cells (CWR22rv-1 cells; after 72 h): 25%
decrease in tumor volume [1]: 62%
acute rotorod toxicity observations [2]: No deaths, spasms, respiratory disease was reported
